Source: patent US20260327264A1, “PEPTIDE INHIBITORS OF INTERLEUKIN-23 RECEPTOR” (Zealand Pharma A/S, priority 2023, published 2026)
Read-outs that look alike come from different tables or passages of the source. *1 amine or outer side, *2 acyl side, *3 side chain or, on linkers, in order; H or OH if unused. Where a SMILES comes first, the peptide text is derived from it. Bridges are numbered along the chain shown (N, C = ends). [ ]: non-standard residue; d: D form. 2Nal = N[C@@H](Cc1ccc2ccccc2c1)C(=O)O; AEF = NCCOc1ccc(C[C@H](N)C(=O)O)cc1; X1 = O=C(Cc1ccc(CN[*:1])cc1)[*:2]; 3Pal = N[C@@H](Cc1cccnc1)C(=O)O; αMeL = CC(C)C[C@](C)(N)C(=O)O; CH2COCH2 = O=C(C[*:1])C[*:2]; NMeS = CN[C@@H](CO)C(=O)O; Dab = NCC[C@H](N)C(=O)O

Legend:
[1] = target: T1, human IL-23R (Homo sapiens, UniProt Q5VWK5); test: Binding assay: displacement of fluorophore (TAMRA)-labelled reference compound from human IL-23R (BRET, Nluc-IL23R fusion protein membranes); conditions: for Emax: read-out: % displacement (hIL-23R binding)
T1 construct: Nanoluc luciferase (Nluc); secretion signal encoded by the plasmid (not specified); expressed in transfected cells; crude membranes used in the assay
T1 sequence (Q5VWK5 22-629): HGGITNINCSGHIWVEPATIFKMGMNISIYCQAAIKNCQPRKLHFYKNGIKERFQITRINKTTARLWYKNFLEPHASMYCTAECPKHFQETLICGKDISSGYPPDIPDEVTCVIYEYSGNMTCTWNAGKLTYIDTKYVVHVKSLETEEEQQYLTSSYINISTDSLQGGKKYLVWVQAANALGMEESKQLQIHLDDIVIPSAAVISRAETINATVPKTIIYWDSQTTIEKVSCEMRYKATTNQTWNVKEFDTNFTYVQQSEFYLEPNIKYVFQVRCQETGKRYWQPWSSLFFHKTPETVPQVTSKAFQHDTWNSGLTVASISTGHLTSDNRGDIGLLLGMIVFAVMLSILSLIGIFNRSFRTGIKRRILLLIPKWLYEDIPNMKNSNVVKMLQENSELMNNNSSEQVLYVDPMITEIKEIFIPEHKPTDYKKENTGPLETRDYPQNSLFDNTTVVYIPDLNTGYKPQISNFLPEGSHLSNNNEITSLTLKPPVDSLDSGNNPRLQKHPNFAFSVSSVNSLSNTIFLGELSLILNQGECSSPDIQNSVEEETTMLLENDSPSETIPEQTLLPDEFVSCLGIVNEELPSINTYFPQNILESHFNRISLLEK

[2] = tested on: IL-23 mediated STAT3 signalling (DB cells); test: Functional inhibition of IL-23 mediated STAT3 signalling (phospho-STAT3 Tyr705) in DB cells; format: cell-based, human; conditions: for hIL-23 (pSTAT3) antagonist % inhibition: Table 3-2, maximal inhibitory response, EC80 of hIL-23
Description: Upon binding of IL-23, the IL-23R forms a heterodimer signalling complex together with IL-12R β1, which through the JAK2/STAT3 pathway promotes phosphorylation of STAT3 to form phospho-STAT3.
For compounds tested in this assay, the response was normalized relative to control values to calculate the IC50 and maximal inhibitory response from a concentration response curve of the compound in presence of a fixed concentration of human IL-23.
The assay procedure was as follows. […] Following preincubation of the DB cells with inhibitor for 15 min in a cell incubator (37° C., 5% CO2), 20 μL of the prepared 3× the EC80 of hIL-23 solution was added to each well and incubated for 90 min in a cell incubator (37° C., 5% CO2). For some wells buffer only or IL-23 only corresponding to the EC80 was added to obtain readouts needed for normalization. To terminate the assay, the plate was spun at 1000 G for 5 min to pellet cells, the supernatant removed using an 8-channel manual pipette, and then added 50 μL/well Complete Lysis Buffer from the MSD STAT3 kit (Cat #K150SVD, Mesoscale) to the cell pellet. To completely lyse cells to release phospho-STAT3 for detection, the plate was shaken for 10 min at room temperature (500 rpm) sealed with aluminium foil and placed at −80° C. for a minimum of 15 min. Detection of the phospho-STAT3 level in the cell lysate from the individual wells was determined using the MSD STAT3 kit (Cat #K150SVD, Mesoscale) and read on a Meso QuickPlex SQ 120 plate reader (Mesoscale).
For data analysis raw data counts from the Meso QuickPlex SQ 120 plate reader were normalized relative to the response by the EC80 of hIL-23 alone (no compound added) and the buffer level.

[3] = Table 3-2, EC80 of hIL-23, read-out: hIL-23 (pSTAT3) antagonist IC50

SMILES	Emax [1] [%]	IC50 ([2]; EC80 of hIL-23, read-out: IC50 (pSTAT3)) [nM]	IC50 [2, 3] [nM]	IC50 [1] [nM]	hIL-23 (pSTAT3) antagonist % inhibition [2] [%]
CC(C)C[C@]1(C)NC(=O)[C@H](Cc2c[nH]c3ccccc23)NC(=O)[C@H](Cc2c[nH]c3ccccc23)NC(=O)[C@@H]2CSCC(=O)CSC[C@H](NC(=O)[C@H]([C@@H](C)O)NC(=O)[C@@H](NC(=O)CN)CSCC(=O)CSC[C@@H](C(=O)N[C@@H](CO)C(N)=O)NC1=O)C(=O)N[C@@H](Cc1c[nH]c3ccccc13)C(=O)N[C@@H](CCC(=O)O)C(=O)N2 (single isomer, unassigned) [I5 (isomer 3), H-GC(1a)TC(2a)WEC(2a)WW[2-Me-Leu]C(1a)S-[NH2], reference compound]	102				91
CNC(=O)[C@H](Cc1cccnc1)NC(=O)[C@H](COC)NC(=O)[C@@H]1CCC(=O)NCc2ccc(cc2)CC(=O)N[C@@H](C)C(=O)N[C@H]2CCC(=O)NCC[C@H](NC(=O)[C@H](CCC(N)=O)NC(=O)[C@H](Cc3c[nH]c4ccccc34)NC2=O)C(=O)N[C@@H](Cc2ccc(N3CCOCC3)cc2)C(=O)N[C@@H](Cc2ccc3ccccc3c2)C(=O)NC(C)(C)C(=O)N1 [Compound 53, [4-aminomethyl-phenylacetyl](1c)*AE(2c)WQ[Dab](2c)[F(4-morpholine)][2Nal][Aib]E(1c)[Ser(OCH3)][3-(3-Pyridyl)-alanyl]-[NHMe]]	102			0.23	
CC(=O)N[C@H]1CCSC[C@@H](C(=O)N[C@@H](Cc2ccc(OCCN)cc2)C(=O)N[C@@H](Cc2c[nH]c3ccccc23)C(=O)N[C@@](C)(CCCCN)C(=O)N[C@@H](CCC(=O)O)C(=O)N[C@@H](CC(N)=O)C(=O)NCC(N)=O)NC(=O)[C@H](CCC(N)=O)NC(=O)[C@H](Cc2c[nH]c3ccccc23)NC(=O)[C@H]([C@@H](C)O)NC(=O)[C@H](CCC(N)=O)NC1=O [Compound C, [Ac]-[Abu](16i)QTWQC(16i)[Y(2-aminoethoxy)]W[2-Me-Lys]ENG-[NH2], reference compound]	102				
CC(C)C[C@]1(C)NC(=O)[C@H](Cc2ccc3ccccc3c2)NC(=O)[C@H](Cc2ccc(OCCN)cc2)NC(=O)[C@@H]2CSCC(=O)CSC[C@H](NC(=O)[C@H](CO)N(C)C(=O)Cc3ccc(cc3)CNC(=O)CC[C@@H](C(=O)N[C@@H](CCN)C(N)=O)NC1=O)C(=O)N[C@@H](Cc1c[nH]c3ccccc13)C(=O)N[C@@H](CCC(N)=O)C(=O)N2 [Ref 141, [4-Aminomethyl-phenylacetyl](1c)*[N—Me-Ser]C(2a)WQC(2a)[Y(2-aminoethoxy)][2-Nal][2-Me-Leu]E(1c)[Dab]-[NH2], reference compound] ([X1][NMeS]CWQC[AEF][2Nal][αMeL]E[Dab]-NH2; linker 3-6 via CH2COCH2; lactam N-10)	102				

Further lines, with some results ahead:

Emax [1] [%]	IC50 ([2]; EC80 of hIL-23, read-out: IC50 (pSTAT3)) [nM]	IC50 [2, 3] [nM]	IC50 [1] [nM]	SMILES	hIL-23 (pSTAT3) antagonist % inhibition [2] [%]
91	0.038	0.038		CC(C)C[C@]1(C)NC(=O)[C@H](Cc2ccc3ccccc3c2)NC(=O)[C@H](Cc2ccc(OCCN)cc2)NC(=O)[C@@H]2CCNC(=O)CC[C@H](NC(=O)[C@H](CO)NC(=O)Cc3ccc(cc3)CNC(=O)CC[C@@H](C(=O)N[C@@H](CCN)C(=O)N[C@@H](Cc3cccnc3)C(=O)N[C@H](Cc3c[nH]cn3)C(N)=O)NC1=O)C(=O)N[C@@H](Cc1c[nH]c3ccccc13)C(=O)N[C@@H](CCC(N)=O)C(=O)N2 [Compound 10, [4-Aminomethyl-phenylacetyl](1c)*SE(2c)WQ[Dab](2c)[Y(2-aminoethoxy)][2-Nal][2-Me-Leu]E(1c)[Dab][3-(3-Pyridyl)-Ala][{d}H]-[NH2]] ([X1]SEWQ[Dab][AEF][2Nal][αMeL]E[Dab][3Pal][dH]-NH2; lactam 3-6, N-10)	99
96		12		CC(C)C[C@]1(C)NC(=O)[C@H](Cc2ccc3ccccc3c2)NC(=O)[C@H](Cc2ccc(OCCN)cc2)NC(=O)[C@@H]2CCNC(=O)CC[C@H](NC(=O)[C@H](CO)NC(=O)Cc3ccc(cc3)CNC(=O)CC[C@@H](C(=O)NCC[C@H](N)C(=O)N[C@@](C)(Cc3cccnc3)C(N)=O)NC1=O)C(=O)N[C@@H](Cc1c[nH]c3ccccc13)C(=O)N[C@@H](CCC(N)=O)C(=O)N2 [Compound 15, [4-Aminomethyl-phenylacetyl](1c)*SE(2c)WQ[Dab](2c)[Y(2-aminoethoxy)][2-Nal][2-Me-Leu]E(1c)[Iso-Dab][2-Me-3-(3-Pyridyl)-Ala]-[NH2]]	97
103		0.16		CNC(=O)[C@H](Cc1cncnc1)NC(=O)[C@H](CCN)NC(=O)[C@@H]1CCC(=O)NCc2ccc(cc2)CC(=O)N[C@@H](CO)C(=O)N[C@H]2CCC(=O)NCC[C@H](NC(=O)[C@H](CCC(N)=O)NC(=O)[C@H](Cc3c[nH]c4ccccc34)NC2=O)C(=O)N[C@@H](Cc2ccc(OCCN)cc2)C(=O)N[C@@H](Cc2ccc3ccccc3c2)C(=O)N[C@@](C)(CC(C)C)C(=O)N1 [Compound 19, [4-Aminomethyl-phenylacetyl](1c)*SE(2c)WQ[Dab](2c)[Y(2-aminoethoxy)][2-Nal][2-Me-Leu]E(1c)[Dab][3-(3,5-Pyrimidyl)-Ala]-[NHMe]]	100
			0.035	CNC(=O)[C@H](Cc1cccnc1)NC(=O)[C@H](CCN)NC(=O)[C@@H]1CCC(=O)NCc2ccc(cc2)CC(=O)N[C@@H](CO)C(=O)N[C@H]2CCC(=O)NCC[C@H](NC(=O)[C@H](C)NC(=O)[C@H](Cc3c[nH]c4ccccc34)NC2=O)C(=O)N[C@@H](Cc2ccc(OCCN)cc2)C(=O)N[C@@H](Cc2ccc3ccccc3c2)C(=O)N[C@@](C)(CC(C)C)C(=O)N1 [Compound 22, [4-Aminomethyl-phenylacetyl](1c)*SE(2c)WA[Dab](2c)[Y(2-aminoethoxy)][2-Nal][2-Me-Leu]E(1c)[Dab][3-(3-Pyridyl)-Ala]-[NHMe]] ([X1]SEWA[Dab][AEF][2Nal][αMeL]E[Dab][3Pal]-NHMe; lactam 3-6, N-10)	101
97		5.2	0.12	CNC(=O)[C@H](Cc1cccnc1)NC(=O)[C@H](CCN)NC(=O)[C@@H]1CCC(=O)NCc2ccc(cc2)CC(=O)N[C@@H](CO)C(=O)N[C@H]2CCC(=O)NCC[C@H](NC(=O)[C@H](Cc3ccccc3)NC(=O)[C@H](Cc3c[nH]c4ccccc34)NC2=O)C(=O)N[C@@H](Cc2ccc(OCCN)cc2)C(=O)N[C@@H](Cc2ccc3ccccc3c2)C(=O)N[C@@](C)(CC(C)C)C(=O)N1 [Compound 23, [4-Aminomethyl-phenylacetyl](1c)*SE(2c)WF[Dab](2c)[Y(2-aminoethoxy)][2-Nal][2-Me-Leu]E(1c)[Dab][3-(3-Pyridyl)-Ala]-[NHMe]] ([X1]SEWF[Dab][AEF][2Nal][αMeL]E[Dab][3Pal]-NHMe; lactam 3-6, N-10)	99
105		0.38	0.073	CNC(=O)[C@H](Cc1cccnc1)NC(=O)[C@H](CCN)NC(=O)[C@@H]1CCC(=O)NCc2ccc(cc2)CC(=O)N[C@@H](C)C(=O)N[C@H]2CCC(=O)NCC[C@H](NC(=O)[C@H](CCC(N)=O)NC(=O)[C@H](Cc3c[nH]c4ccccc34)NC2=O)C(=O)N[C@@H](Cc2ccc(N3CCOCC3)cc2)C(=O)N[C@@H](Cc2ccc3ccccc3c2)C(=O)NC(C)(C)C(=O)N1 [Compound 51, [4-aminomethyl-phenylacetyl](1c)*AE(2c)WQ[Dab](2c)[F(4-morpholine)][2Nal][Aib]E(1c)[Dab][3-(3-Pyridyl)-alanyl]-[NHMe]]	96
